Assays:
Assay type in all cases: protein-complex assay
Integrin alpha-4/beta-1 [1] = molecular target: T1, Integrin alpha-4/beta-1 (Homo sapiens, UniProt P05556+P13612); experiment: Inhibition of alpha4-beta1 integrin connecting segment 1 (CS1) splice variant binding interaction
Target sequence in this assay (P05556 21-798 limits assumed, change not shown): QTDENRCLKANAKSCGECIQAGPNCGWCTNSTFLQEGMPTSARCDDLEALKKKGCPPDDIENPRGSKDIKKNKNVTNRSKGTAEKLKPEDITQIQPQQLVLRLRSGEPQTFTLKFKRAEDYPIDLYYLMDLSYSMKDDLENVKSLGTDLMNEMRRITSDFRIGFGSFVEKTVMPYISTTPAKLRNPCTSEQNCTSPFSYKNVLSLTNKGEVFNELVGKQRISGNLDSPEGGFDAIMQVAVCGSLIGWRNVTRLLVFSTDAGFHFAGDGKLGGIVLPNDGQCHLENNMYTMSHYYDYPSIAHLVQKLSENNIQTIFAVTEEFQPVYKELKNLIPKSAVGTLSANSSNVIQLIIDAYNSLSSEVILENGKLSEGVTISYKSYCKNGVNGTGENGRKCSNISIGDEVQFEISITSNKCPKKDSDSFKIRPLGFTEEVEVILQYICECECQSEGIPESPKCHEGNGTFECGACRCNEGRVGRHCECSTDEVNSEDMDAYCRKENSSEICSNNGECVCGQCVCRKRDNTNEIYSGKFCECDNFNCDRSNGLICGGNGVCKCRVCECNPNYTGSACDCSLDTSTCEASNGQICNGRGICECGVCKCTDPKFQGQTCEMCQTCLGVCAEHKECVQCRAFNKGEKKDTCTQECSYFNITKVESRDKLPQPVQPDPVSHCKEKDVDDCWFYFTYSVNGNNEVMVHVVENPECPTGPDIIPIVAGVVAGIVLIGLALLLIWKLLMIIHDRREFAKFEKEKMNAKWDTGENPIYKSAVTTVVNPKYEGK
Target sequence in this assay (P13612 34-1032 limits assumed, change not shown): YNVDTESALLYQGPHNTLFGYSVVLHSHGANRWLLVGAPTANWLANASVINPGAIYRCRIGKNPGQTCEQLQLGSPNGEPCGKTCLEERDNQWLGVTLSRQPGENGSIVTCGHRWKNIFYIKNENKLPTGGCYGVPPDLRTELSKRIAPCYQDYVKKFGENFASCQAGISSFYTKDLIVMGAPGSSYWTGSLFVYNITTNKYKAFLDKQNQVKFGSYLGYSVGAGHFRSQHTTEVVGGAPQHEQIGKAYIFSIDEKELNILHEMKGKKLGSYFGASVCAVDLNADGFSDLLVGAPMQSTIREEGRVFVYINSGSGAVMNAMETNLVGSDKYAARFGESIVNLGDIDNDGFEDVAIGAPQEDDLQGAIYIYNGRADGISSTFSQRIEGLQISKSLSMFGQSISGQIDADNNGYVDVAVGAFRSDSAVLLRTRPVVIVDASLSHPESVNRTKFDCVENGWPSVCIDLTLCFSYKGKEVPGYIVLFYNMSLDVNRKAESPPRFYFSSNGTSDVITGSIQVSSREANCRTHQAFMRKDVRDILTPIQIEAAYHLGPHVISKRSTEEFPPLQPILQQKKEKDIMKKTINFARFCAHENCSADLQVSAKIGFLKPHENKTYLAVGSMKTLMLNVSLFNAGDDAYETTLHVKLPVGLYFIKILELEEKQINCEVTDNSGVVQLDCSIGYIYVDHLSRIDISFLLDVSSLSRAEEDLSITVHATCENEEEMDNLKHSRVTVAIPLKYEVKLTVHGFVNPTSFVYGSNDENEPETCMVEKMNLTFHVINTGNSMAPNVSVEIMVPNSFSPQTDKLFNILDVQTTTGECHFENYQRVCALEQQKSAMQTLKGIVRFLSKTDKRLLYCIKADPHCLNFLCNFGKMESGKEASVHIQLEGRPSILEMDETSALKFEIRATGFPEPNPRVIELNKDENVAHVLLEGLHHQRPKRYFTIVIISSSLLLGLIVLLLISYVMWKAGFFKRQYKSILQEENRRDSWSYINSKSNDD

Integrin alpha-4/beta-1 [2] = molecular target: T1, Integrin alpha-4/beta-1; experiment: Inhibition of alpha4-beta1 integrin connecting segment 1 (CS1) splice variant binding interaction at 100 uM
Integrin alpha-4/beta-1 [3] = molecular target: T1, Integrin alpha-4/beta-1; experiment: Inhibition of alpha4-beta1 integrin connecting segment 1 (CS1) splice variant binding interaction 100 uM

| Structure (SMILES) | IC50 (Integrin alpha-4/beta-1 [1]) | inhibition (Integrin alpha-4/beta-1 [2]) | inhibition (Integrin alpha-4/beta-1 [3]) |
| --- | --- | --- | --- |
| O=C(O)CCN1CCS[C@H](CC(=O)O)C(=O)N[C@@H](Cc2ccc(O)cc2)C1=O | 5 µM | 100% | – |
| CCCCN1CCS[C@@H](CC(=O)O)C(=O)N[C@@H](Cc2ccccc2)C1=O | > 100 µM | 41% | – |
| O=C(O)CCN1CCS[C@@H](CC(=O)O)C(=O)N[C@@H](Cc2ccc(O)cc2)C1=O | 8 µM | – | 100% |
| CC(C)CCN1CCS[C@@H](CC(=O)O)C(=O)N[C@@H](Cc2ccccc2)C1=O | > 100 µM | 0% | – |
